According to patent US20050222110A1, “Use of loteprednol etabonate for the treatment of dry eye” (priority 2004, published 2005):

Legend:
[1] = 0.2%; up to 3 years; 265 patients; allergic conjunctivitis; cited from earlier work
[2] = tested on: keratoconjunctivitis sicca (KCS) in patients with delayed tear clearance; assay: Clinical trial in KCS patients: corneal fluorescein staining score; type: in vivo, human; conditions: subset with more severe clinical inflammatory signs at entry
Description: (§1) A randomized, double-masked, placebo-controlled, multicenter, pilot study was conducted in compliance with ICH Good Clinical Practice and the Declaration of Helsinki. Approval was obtained from an Institutional Review Board for each study site before initiating the study. Written informed consent was obtained from all patients before any study specific investigations were performed.
In addition, they were required to meet the following criteria in at least one eye: • 1. delayed tear clearance defined by a standardized visual scale score ≧3^15 • 2. at least one symptom >30 mm on the visual analog scale (VAS) • 3. composite corneal staining score >3
Patients were randomly assigned to receive either Lotemax® Bausch and Lomb Inc. Rochester N.Y., or placebo four times a day. […]
Patients attended for 5 visits. […] The fluorescence was graded between 0 and 6 using a standard color comparison scale. […] The corneal staining was evaluated 5 minutes after the instillation of the 2% fluorescein, viewing the cornea through a slit lamp with blue light and a No. 11 Wratten filter (See Table 2 below).
As is traditional for studies of this kind, two primary variables were defined representing subjective evaluation by the patient and objective evaluation based on the clinical examination findings. […] Each area was scored according to the corneal staining grading scale (Table 2 above). […]

[3] = Clinical trial in KCS patients: intraocular pressure; type: in vivo, human; conditions: one month of therapy; mean IOP and individual patients
Description: as §1
(§2) Patients were randomly assigned to receive either Lotemax® Bausch and Lomb Inc. Rochester N.Y., or placebo four times a day. Lotemax® (loteprednol etabonate ophthalmic suspension, 0.5%) was supplied in 7.5 mL (5.0 mL fill) white, low density polyethylene dropper bottles with white caps for masking purposes. Placebo (the vehicle of Lotemax®) was supplied in identical bottles. Preservative Free Moisture Eyes™ Lubricant Eye Drops (Bausch & Lomb) were supplied in unit dose containers.
(§3) Safety was assessed by fundoscopy, lens examination and biomicroscopy, by tests of visual acuity and intraocular pressure, and by monitoring adverse events and changes in symptomatology. Adverse events were evaluated by the investigator as to severity (mild, moderate, severe) and relationship of the event to the study drug (probable, possible, unlikely, or unknown).

[4] = Clinical trial in KCS patients: adverse events and toxicity; type: in vivo, human; conditions: following one month of therapy
Description: as §1, §2, §3

## CCOC(=O)O[C@]1(C(=O)OCCl)CC[C@H]2[C@@H]3CCC4=CC(=O)C=C[C@]4(C)[C@H]3[C@@H](O)C[C@@]21C [loteprednol, (11β,17α),-17-[(Ethoxycarbonyl)oxy]-11-hydroxy-3-oxoandrosta-1,4-diene-17-carboxylic acid chloromethyl ester]
[1]
  Cataract formation: no cataract formation was observed
  Mean intraocular pressure compared to pretreatment values: not different from baseline
[2]; four weeks
  Central corneal fluorescein staining, improvement: ~20%
[2]; two weeks
  Central corneal fluorescein staining, improvement: approximately 30%
[3]
  Elevation of IOP: neither elevation of the mean IOP nor any individual with a clinically important elevation of the IOP
[4]
  Toxicity: complete lack of toxicity
